Reference: paper PMC11869342, “Design and synthesis of novel HDAC6 inhibitor dimer as HDAC6 degrader for cancer treatment by palladium catalysed dimerisation” (Journal of Enzyme Inhibition and Medicinal Chemistry, 2025)
Entries after “also recorded” stand apart in the source; their conditions may differ. Like-named read-outs stand apart in the source and are kept apart here.

Tests used:
PC-3 cells = test: Sulforhodamine B (SRB) assay, PC-3; format: cell-based; conditions: Homo sapiens, read-out: GI50 con. ± SEM PC-3
Method: (§1) The A549 and PC-3 human lung and prostate cancer cell lines were acquired from the American Type Culture Collection (Rockville, MD). […] The cultures were kept in a 37 °C incubator with 5% CO2. When the adherent cultures reached 80% confluence, they were passaged using 0.05% trypsin-EDTA. PC-3 and A549 cells were seeded into 96-well plates in RPMI medium with 5% (v/v) foetal bovine serum for 24 h. Cells in partial wells were fixed with 10% trichloroacetic acid (TCA) to represent the initial time of compound treatment. The cells were treated with or without the indicated compound for 48 h and then were fixed with 10% TCA. After the washout with ddH2O and air-dried, SRB at 0.4% (w/v) in 1% acetic acid was added for staining. Unbound SRB was washed with 1% acetic acid and SRB-bounded cells were solubilised with 10 mM Tris base. The absorbance was read at a wavelength of 515 nm for the determination of cell growth.

A549 cells = test: Sulforhodamine B (SRB) assay, A549; format: cell-based; conditions: Homo sapiens, read-out: GI50 con. ± SEM A549
Method: as §1

HDAC1 = target: T1, HDAC1 (Homo sapiens, UniProt Q13547); test: HDAC enzyme activity assay (Reaction Biology), HDAC1; format: biochemical
T1 construct: purchased Reaction Biology Corporation (Malvern, PA)

HDAC6 [1] = target: T2, HDAC6 (Homo sapiens, UniProt Q9UBN7); test: HDAC enzyme activity assay (Reaction Biology), HDAC6; format: biochemical; set-up: Full-length recombinant hHDAC 6 was expressed in a baculovirus expression system in SF9 cells; purchased Reaction Biology Corporation (Malvern, PA); host or cells: baculovirus / SF9 insect cells; conditions: for IC50: full-length recombinant hHDAC 6, RHKKAc substrate 50 μM, 2 h at 30 °C; for HDAC1/6 Selectivity: ratio of HDAC1 IC50 to HDAC6 IC50
T2 sequence (Q9UBN7 1-1215): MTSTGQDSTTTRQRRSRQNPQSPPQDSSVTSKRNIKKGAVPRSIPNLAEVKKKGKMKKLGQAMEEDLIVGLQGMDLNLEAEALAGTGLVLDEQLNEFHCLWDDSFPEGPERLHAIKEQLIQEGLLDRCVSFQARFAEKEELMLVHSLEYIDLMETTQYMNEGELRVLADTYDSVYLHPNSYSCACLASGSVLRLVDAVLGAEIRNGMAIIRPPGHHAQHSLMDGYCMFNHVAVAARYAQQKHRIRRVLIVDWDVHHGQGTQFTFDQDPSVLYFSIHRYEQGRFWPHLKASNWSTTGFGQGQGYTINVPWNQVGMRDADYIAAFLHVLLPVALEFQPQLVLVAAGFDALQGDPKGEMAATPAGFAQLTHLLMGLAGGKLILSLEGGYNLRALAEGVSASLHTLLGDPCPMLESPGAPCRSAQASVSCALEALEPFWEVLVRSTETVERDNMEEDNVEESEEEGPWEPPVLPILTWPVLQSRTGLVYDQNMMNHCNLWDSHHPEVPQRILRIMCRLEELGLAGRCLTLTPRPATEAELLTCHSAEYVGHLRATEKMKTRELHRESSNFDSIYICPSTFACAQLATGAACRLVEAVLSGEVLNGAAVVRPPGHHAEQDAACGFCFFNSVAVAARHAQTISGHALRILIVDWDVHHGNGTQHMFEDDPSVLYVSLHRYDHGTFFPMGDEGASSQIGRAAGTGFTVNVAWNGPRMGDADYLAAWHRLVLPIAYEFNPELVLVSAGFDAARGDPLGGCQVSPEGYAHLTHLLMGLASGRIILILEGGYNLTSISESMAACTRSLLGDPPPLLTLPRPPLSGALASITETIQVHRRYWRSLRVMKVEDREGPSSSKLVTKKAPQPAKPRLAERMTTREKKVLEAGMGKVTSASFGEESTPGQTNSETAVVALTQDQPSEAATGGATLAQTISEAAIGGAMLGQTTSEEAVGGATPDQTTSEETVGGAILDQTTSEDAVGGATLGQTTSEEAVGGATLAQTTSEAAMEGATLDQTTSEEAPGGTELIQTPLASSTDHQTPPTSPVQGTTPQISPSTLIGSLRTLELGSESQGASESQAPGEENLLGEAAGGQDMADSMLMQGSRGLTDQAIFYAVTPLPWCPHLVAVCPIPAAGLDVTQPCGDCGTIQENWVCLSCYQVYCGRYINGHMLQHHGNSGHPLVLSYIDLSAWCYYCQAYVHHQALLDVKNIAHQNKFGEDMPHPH
Method: HDAC inhibition assays were performed by Reaction Biology Corporation (Malvern, PA). Full-length recombinant hHDAC 6 was expressed in a baculovirus expression system in SF9 cells. […] The reaction was stopped after 2 h at 30 °C . Trichostatin A was used as an internal control.

PARP-1 and Caspase-3 = test: Western blotting of apoptosis biomarkers PARP-1 and Caspase-3 in PC-3 cells; format: cell-based, human; conditions: 30 μM, 24 h
Method: (§2) Figure 3. Western blotting analysis of (a) HDAC6 protein in PC-3 cells treated with various dimer compounds at 30 μM for 24 h, (b) Ac-α-tubulin protein in PC-3 cells treated with various dimer compounds at 30 μM for 24 h, (c) LC-3 I, LC-3 II, and p62 proteins in PC-3 cells treated with various dimer compounds at 30 μM for 24 h, (d) PARP-1 and Caspase-3 proteins in PC-3 cells treated with various dimer compounds at 30 μM for 24 h, (e) p-BUBR1^S670 and p-BUBR1^T680 proteins in PC-3 cells treated with various dimer compounds at 30 μM for 24 h. Glyceraldehyde 3-phosphate dehydrogenase (GAPDH) was used as the loading control.
(§3) After compound treatment, the cells were harvested and centrifuged. […] The supernatants quantified by Bio-Rad protein assay kit (Bio-Rad Laboratories, Hercules, CA) were mixed with sample buffer (0.3 M Tris pH6.8, 10% SDS, 50% glycerol, 10% β-mercaptoethanol, and 0.02% bromophenol blue) and heated at 95 °C for 10 min. The protein (30 µg) was separated by electrophoresis in 8% or 12% SDS-PAGE, transferred to PVDF membranes, and detected with specific antibodies (1:1000 dilution for the first and 1:7000 for the second antibodies). The immunoreactive proteins were detected with an enhanced chemiluminescence detection kit (Amersham, Buckinghamshire, UK) and the images were captured by ChemiDoc™ MP System (Bio-Rad Laboratories, Hercules, CA).

HDAC6 [2] = target: T2, HDAC6; test: Western blotting of HDAC6 protein (degradation) in PC-3 cells; format: cell-based; set-up: endogenous in cells; host or cells: PC-3 (ATCC); conditions: 30 μM, 24 h
Method: as §2, §3

LC-3 II and p62 = test: Western blotting of autophagy proteins LC-3 II and p62 in PC-3 cells; format: cell-based, human; conditions: 30 μM, 24 h
Method: as §2, §3

T1 sequence (Q13547 whole entry): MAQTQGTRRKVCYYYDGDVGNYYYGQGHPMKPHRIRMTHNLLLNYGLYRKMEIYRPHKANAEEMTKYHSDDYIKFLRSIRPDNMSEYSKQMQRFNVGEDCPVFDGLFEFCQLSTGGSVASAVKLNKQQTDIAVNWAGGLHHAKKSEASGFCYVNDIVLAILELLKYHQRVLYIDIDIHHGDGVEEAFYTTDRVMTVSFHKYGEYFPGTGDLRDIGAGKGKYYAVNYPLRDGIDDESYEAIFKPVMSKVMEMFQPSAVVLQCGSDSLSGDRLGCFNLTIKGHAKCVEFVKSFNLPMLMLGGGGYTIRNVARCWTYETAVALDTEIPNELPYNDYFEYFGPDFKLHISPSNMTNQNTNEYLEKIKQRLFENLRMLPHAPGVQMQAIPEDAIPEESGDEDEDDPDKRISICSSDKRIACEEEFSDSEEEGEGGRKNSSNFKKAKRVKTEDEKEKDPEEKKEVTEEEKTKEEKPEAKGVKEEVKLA

Row | Structure (SMILES) | GI50 (PC-3 cells; PC-3 cells, SRB, 48 h) [µM] | GI50 (A549 cells; A549 cells, SRB, 48 h) [µM] | IC50 (HDAC1) [µM] | IC50 (HDAC6 [1]) [µM] | HDAC1/6 Selectivity (HDAC6 [1]) | GI50 (PC-3 cells; PC-3, 48 h) [µM] | GI50 (A549 cells; A549, 48 h) [µM] | apoptosis induction (PARP-1 cleavage, Caspase-3 activation) (PARP-1 and Caspase-3) | HDAC6 degradation (Western blot) (HDAC6 [2]) | autophagy induction (LC-3 II level, p62 expression) (LC-3 II and p62)
1 | O=C(NO)c1ccc(CNc2ccccc2C(=O)NCCCCCNC(=O)c2ccccc2NCc2ccc(C(=O)NO)cc2)cc1 [Compound 11c] | 8.2 ± 0.1 | 6.6 ± 0.1 | 1.46 | 0.015 | 95 | – | – | – | – | –
2 | O=C(NO)c1ccc(Cn2c(=O)n(CCc3ccccc3)c(=O)c3ccccc32)cc1 [Compound 1] | – | – | 11.2 | – | 2790 | 3.5 | 8.8 | – | – | –
3 | O=C(NO)c1ccc(Cn2c(=O)n(CCc3ccc(NCCOCCOCCNc4ccc(CCn5c(=O)c6ccccc6n(Cc6ccc(C(=O)NO)cc6)c5=O)cc4)cc3)c(=O)c3ccccc32)cc1 [Compound 6b, 4-{[3-(2-{4-[2–(2-{2-[4-(2-{1-[(4-Hydroxamophenyl)methyl]-2,4-dioxoquinazolin-3-yl}ethyl)phenylamino]ethoxy}ethoxy)ethylamino]phenyl}ethyl)-2,4-dioxoquinazolin-1-yl]methyl}benzohydroxamic acid] | 5.5 ± 0.7 | 9.1 ± 1.8 | 9.57 | 0.033 | 283 | – | – | did not induce apoptosis | did not degrade HDAC6 | signs of inducing autophagy
4 | O=C(NO)c1ccc(Cn2c(=O)n(CCOCCOCCn3c(=O)c4ccccc4n(Cc4ccc(C(=O)NO)cc4)c3=O)c(=O)c3ccccc32)cc1 [Compound 8b, 4-[(3-{2-[2-(2-{1-[(4-Hydroxamophenyl)methyl]-2,4-dioxoquinazolin-3-yl}ethoxy)ethoxy]ethyl}-2,4-dioxoquinazolin-1-yl)methyl]benzohydroxamic acid] | > 30 | > 30 | 3.19 | 0.002 | 1386 | – | – | – | – | –
5 | O=C(NO)c1ccc(CNc2ccccc2C(=O)NCCOCCOCCNC(=O)c2ccccc2NCc2ccc(C(=O)NO)cc2)cc1 [Compound 11b] | 11.3 ± 0.2 | 17.9 ± 0.4 | 1.27 | 0.003 | 326 | – | – | – | – | –
6 | O=C(NO)c1ccc(Cn2c(=O)n(CCOCCOCCOCCn3c(=O)c4ccccc4n(Cc4ccc(C(=O)NO)cc4)c3=O)c(=O)c3ccccc32)cc1 [Compound 8a, 4-{[3-(11-{1-[(4-Hydroxamophenyl)methyl]-2,4-dioxoquinazolin-3-yl}-3,6,9-trioxaundecyl)-2,4-dioxoquinazolin-1-yl]methyl}benzohydroxamic acid] | 14.7 ± 1.3 | > 30 | 3.33 | 0.012 | 273 | – | – | induce apoptosis | degradation of HDAC6 was observed; also recorded: induced HDAC6 auto-degradation | strong autophagy induction
7 | O=C(NO)c1ccc(CNc2ccccc2C(=O)NCCOCCOCCOCCNC(=O)c2ccccc2NCc2ccc(C(=O)NO)cc2)cc1 [Compound 11a] | 5.9 ± 0.7 | 17.3 ± 0.2 | 2.6 | 0.004 | 577 | – | – | – | – | –
8 | O=C(NO)c1ccc(Cn2c(=O)n(CCc3ccccc3)c(=O)c3cc(NCCOCCOCCNc4ccc5c(c4)c(=O)n(CCc4ccccc4)c(=O)n5Cc4ccc(C(=O)NO)cc4)ccc32)cc1 [Compound 4b, 4-[(6-{2-[2-(2-{1-[(4-Hydroxamophenyl)methyl]-2,4-dioxo-3-phenethylquinazolin-6-ylamino}ethoxy)ethoxy]ethylamino}-2,4-dioxo-3-phenethylquinazolin-1-yl)methyl]benzohydroxamic acid] | > 30 | > 30 | > 10 | 0.816 | >12 | – | – | – | – | –
9 | O=C(NO)c1ccc(Cn2c(=O)n(CCCCCn3c(=O)c4ccccc4n(Cc4ccc(C(=O)NO)cc4)c3=O)c(=O)c3ccccc32)cc1 [Compound 8c, 4-{[3-(5-{1-[(4-Hydroxamophenyl)methyl]-2,4-dioxoquinazolin-3-yl}pentyl)-2,4-dioxoquinazolin-1-yl]methyl}benzohydroxamic acid] | > 30 | > 30 | – | 0.027 | – | – | – | – | – | –
10 | O=C(NO)c1ccc(Cn2c(=O)n(CCc3ccccc3)c(=O)c3cc(NCCOCCOCCOCCNc4ccc5c(c4)c(=O)n(CCc4ccccc4)c(=O)n5Cc4ccc(C(=O)NO)cc4)ccc32)cc1 [Compound 4a, 4-{[6-(2-{2-[2-(2-{1-[(4-Hydroxamophenyl)methyl]-2,4-dioxo-3-phenethylquinazolin-6-ylamino}ethoxy)ethoxy]ethoxy}ethylamino)-2,4-dioxo-3-phenethylquinazolin-1-yl]methyl}benzohydroxamic acid] | > 30 | > 30 | – | 0.092 | – | – | – | – | – | –
11 | O=C(NO)c1ccc(Cn2c(=O)n(CCc3ccccc3)c(=O)c3cc(NCCCCCNc4ccc5c(c4)c(=O)n(CCc4ccccc4)c(=O)n5Cc4ccc(C(=O)NO)cc4)ccc32)cc1 [Compound 4c, 4-{[6-(5-{1-[(4-Hydroxamophenyl)methyl]-2,4-dioxo-3-phenethylquinazolin-6-ylamino}pentylamino)-2,4-dioxo-3-phenethylquinazolin-1-yl]methyl}benzohydroxamic acid] | 21.4 ± 0.3 | > 30 | – | 0.096 | – | – | – | – | – | –
